PMC6783563 (Frontiers in Microbiology, 2019)
“Also recorded” adds a separate entry of the source. Where two headings read alike, the source gives them in different places. Residues, ends and D or L forms follow the SMILES beside them. *: point of attachment. Orn(α-tetramethylguanidino) = CN(C)C(=N[C@@H](CCCN)C(=O)*)N(C)C

Key:
[1] = test system: CD-1 mice; assay: Tolerance study after intravenous injection in mice; format: in vivo, mouse; conditions: female CD-1 mice, n = 2
Protocol: (§1) Eight female CD-1 mice (22–30 g, n = 2) or four SD rats (218–260 g, n = 1) were treated iv (10 and 5 mL/kg, respectively) with Api137 formulated in 0.9% saline (TEKnova, Hollister, CA, United States) at concentrations of 5, 10, 25, and 50 mg/kg body weight and their behavior monitored for 24 h.

[2] = in vivo; design: species or system Sprague Dawley rats; conditions: Sprague Dawley, rat
Protocol: (§2) Api137 dissolved in 0.9% saline was injected iv or sc in mice (18–26 g, total = 51) and rats (204–248 g, total = 12) at a dose volume of 10 and 5 mL/kg BW, respectively, according to the dosing scheme (Supplementary Figures 1, 2). Three mice per dose and time point were euthanized by carbon dioxide inhalation and blood was collected via cardiac puncture into K2-EDTA Microtainer® tubes (Becton Dickinson and Company, BD, Franklin Lakes, NJ, United States). Additionally, blood was collected via saphenous vein puncture from three rats into identic tubes.
(§3) Api137 was quantified in EDTA plasma samples using reversed-phase chromatography (RP-HPLC) coupled to electrospray ionization mass spectrometry (ESI-MS/MS) at TNO Triskelion (Zeist, Netherlands). Analog Api134 was used as internal standard. Briefly, internal standard solution (10 μL, 5 mg/L) was added to a plasma sample (50 μL) and mixed with aqueous phosphoric acid (50 μL; 4%, v/v). Solid phase extraction was performed on a WCX micro-elution plate (Waters Corporation, Milford, MA, United States) with a final elution using aqueous acetonitrile (75%, v/v) containing 1% (v/v) trifluoroacetic acid. Extracts were analyzed on an Acquity C18 BEH column (2.1 mm internal diameter, 10 cm length, 1.7 μm particle size; Waters) using an Acquity UPLC system coupled online to a XEVO TQS mass spectrometer (Waters; for details see Supplementary Material). Alternatively, Api137 and metabolites 1–16 and 1–17 were quantified for selected samples in house as reported recently ([Schmidt et al., 2017]).
(§4) 1. Quantitative analysis of Api137 in plasma using a LC-MS/ MS method
(§5) Chemicals were obtained from the following manufacturers. Biosolve B.V. (Valkenswaard, The Netherlands): acetonitrile, formic acid, methanol (all ULC/MS grade); Sigma-Aldrich (St.
(§6) Louis, MO, USA): phosphoric acid (Fluka, 85%), trifluoroacetic acid (Reagent Plus, 99%); Merck KGaA (Darmstadt, Germany): ammonia (25%); water (Milli -Q® Advantage A10 Water […]
(§7) Internal standard solution (10 µL, Api134, 5 µg/mL) was added to a plasma sample (50 µL or 25 µL) and mixed with aqueous phosphoric acid (50 µL or 75 µL; 4%, v/v). Solid phase extraction (SPE) was performed on a WCX micro -elution plate (2 mg, Waters):
(§8) Conditioning I Methanol 200
(§9) Conditioning II Purified water 200
(§10) Sample application Diluted plasma sample 110
(§11) Wash step I Aqueous ammonia (5%, v/v) 200
(§12) Wash step II Aqueous acetonitrile (20%, v/v) 200
(§13) Elution I Aqueous acetonitrile (75%, v/v) including trifluoroacetic 50 […]
(§14) Elution II Aqueous acetonitrile (75%, v/v) including trifluoroacetic 50 […]
(§15) Water (100 µL) was added to the eluate and the plate was covered to avoid avaporation. The plate was shaken (10 min, plate shaker) and the extract was analysed using RPC-MS/MS.
(§16) (1 picture or pasted object on this page, not shown here)
(§17) 1.2.RPC-ESI-MS/MS equipment and conditions
(§18) Equipment/Parameter Value
(§19) UPLC system Acquity (Micromass Waters)
(§20) UPLC column temperature 50 °C
(§21) Autosampler temperature 10 °C […]
(§22) Mobile phase A 1% formic acid in water
(§23) Mobile phase B 1% formic acid in acetonitrile
(§24) Strong Wash [Volume] Methanol/Water/Formic acid (80/20/0.1) [200 µL]
(§25) Weak wash [Volume] Acetonitrile/Water/Trifluoroacetic acid (40/60/0.25) [600 µL]
(§26) Mass spectrometer XEVO TQS (Micromass Waters)
(§27) Ionization mode Electrospray ionization (positive mode)
(§28) Source temperature 150 °C
(§29) Desolvation temperature 600 °C
(§30) Desolvation gas flow 1000 L/h
(§31) Time [min] Mobile phase B [%]
(§32) 1.4.Conditions for multiple reaction monitoring
(§33) Peptide Precursor ion (m/z) Product ion (m/z) Cone [V] Collision energy [eV]
(§34) The peak area of the peptides was obtained using MassLynx 4.1 software (Micromass Waters). The peak a rea ratio (PAR) of peptide Api137 and the internal standard Api134 (Y-axis) was plotted versus the actual peptide concentration (x -axis) to construct a calibration […]
(§35) Supplementary Figure 1 : Dosing schemes and time -points of blood collection for pharmacokinetic analysis of three mice per dose group and time -point. […]

[3] = Pharmacokinetics: Api137 plasma levels after iv or sc injection in mice; design: species or system CD-1 mice; conditions: in vivo
Protocol: as §2, §3, §4, §5, §6, §7, §8, §9, §10, §11, §12, §13, §14, §15, §16, §17, §18, §19, §20, §21, §22, §23, §24, §25, §26, §27, §28, §29, §30, §31, §32, §33, §34, §35

[4] = test system: mouse; conditions: in vivo, ip, 10 mg/kg; cited from earlier work
From the text: (§36) In particular, cationic proline-rich antimicrobial peptides (PrAMPs) belong to the second group binding to the negatively charged bacteria surface by electrostatic interactions through basic amino acid residues. Proline residues account for extended, partially polyproline helix II-like secondary structures that most likely support free penetration through the outer membrane of Gram-negative bacteria. PrAMPs accumulate in the periplasmic space where the transporters SbmA and MdtM actively translocate them into the cells ([Mattiuzzo et al., 2007]; [Runti et al., 2013]; [Krizsan et al., 2015a]). ...

[5] = test system: SD rats; assay: Tolerance study after intravenous injection in rats; format: in vivo, rat; conditions: monitored 24 h, n = 1
Protocol: as §1

[6] = mouse, in vivo, cited from earlier work
From the text: as §36, with “... || Severe multi-drug resistant infections are treated under medical supervision in the hospital using intravenous injection or infusion as preferred administration route for rapid and controlled achievement of efficacious drug plasma levels. […] Unexpectedly, the maximal plasma levels of 6.8 mg/L obtai ...” for “...”

[7] = test system: Escherichia coli ATCC 25922; assay: Lethal murine intraperitoneal sepsis (infection) model; format: in vivo, CD-1 mice; conditions: control, iv 0.25 mg/kg at 1 h post infection, n = 6
Protocol: Escherichia coli ATCC 25922 was obtained from American Type Culture Collection (Manassas, VA, United States). Cells were grown overnight on solid agar, suspended in saline and adjusted to an OD of 0.1 at 625 nm. The suspension was further diluted in 5% hog gastric mucin (Sigma-Aldrich Corporation, St. Louis, MO, United States) and final inoculums between 4.8 × 10^5 and 2.0 × 10^6 colony forming units (cfu) per mouse were injected ip (500 μL). Api137 and levofloxacin was dissolved in sterile saline and sterile water, respectively, and were administered iv (5 mL/kg) into the tail vein or sc (10 mL/kg) into the back. Alternatively, an hour post infection ALZET® osmotic pumps were implanted under isoflurane anesthesia (see above). After 24 h, pumps were exchanged once and finally removed after 48 h.
The log-rank (Mantel-Cox) test was used for comparison of the survival curves and dose-response curves were fitted with the “dose-response log(inhibitor) vs. normalized response – variable slope” function with “least squares fit” using GraphPad Prism 5.02.

[8] = EDTA plasma of CD-1 mice after continuous sc infusion of Api137 (12.8 mg/kg/h) using ALZET osmotic pumps; conditions: up to 24 h
[9] = CD-1, mouse, iv, 5 mg/kg, Plasma level
[10] = CD-1, mouse, iv, 10 mg/kg, Plasma level
[11] = CD-1, mouse, iv, 20 mg/kg, Plasma level
[12] = CD-1, mouse, sc, 20 mg/kg, Plasma level

With `CC[C@H](C)[C@H](NC(=O)[C@H](Cc1ccc(O)cc1)NC(=O)[C@@H](NC(=O)[C@@H]1CCCN1C(=O)[C@H](CCCNC(=N)N)NC(=O)[C@H](CC(N)=O)NC(=O)[C@H](CC(N)=O)NC(=O)[C@H](CCCN)N=C(N(C)C)N(C)C)C(C)C)C(=O)N1CCC[C@H]1C(=O)N[C@@H](CCCNC(=N)N)C(=O)N1CCC[C@H]1C(=O)N[C@@H](CCCNC(=N)N)C(=O)N1CCC[C@H]1C(=O)N1CCC[C@H]1C(=O)N[C@@H](Cc1c[nH]cn1)C(=O)N1CCC[C@H]1C(=O)N[C@@H](CCCNC(=N)N)C(=O)N[C@@H](CC(C)C)C(=O)O` [Api137] ({Orn(α-tetramethylguanidino)}-NNRPVYIPRPRPPHPRL-OH) the “Tolerance after iv injection” value ([1]; 5 mg/kg iv in 0.9% saline, monitored 24 h) was “No adverse effects were observed”, the “Tolerance after iv injection” value ([1]; 50 mg/kg iv) was “experienced convulsion and low blood pressure immediately after dosing and died within 1 min” and the “Tolerance after iv injection” value ([1]; 10 and 20 mg/kg iv, monitored 24 h) was “lethargic within minutes directly after dosing with piloerection for the next 45 min but recovered to normal limits within 1 h”. The level at 0.5 h ([2]; iv) was 0.16 to 0.21 µg/mL, the level at 5 min ([2]; sc, 5 mg/kg) was 0.1 µg/mL and the level at 0.5 h ([2]; sc, 5 mg/kg) was 0.03 µg/mL. For the same compound, the level at 5 min ([2]; sc, 10 mg/kg) was 0.4 µg/mL, the level at 0.5 h ([2]; sc, 10 mg/kg) was 0.08 µg/mL and the level at 5 min ([2]; sc, 20 mg/kg) was 0.8 µg/mL. It also gave a level at 0.5 h ([2]; sc, 20 mg/kg) of 0.25 µg/mL, a level at 1 h ([2]; sc, 20 mg/kg) of 0.02 µg/mL and a level at 0.5 h ([3]; CD-1, mouse, 20 mg/kg, Plasma level after 30 min) of roughly 0.5 µg/mL. The Plasma level ([3]; CD-1, mouse, iv) was 0.005 to 0.02 µg/mL, the level at 245 min ([3]; CD-1, mouse, iv, 5 mg/kg, Plasma concentration) was 10.1 µg/mL and the level at 5 min [3, 9] was 6.8 µg/mL. For the same compound, the level at 0.5 h [3, 9] was 0.09 µg/mL, the level at 245 min ([3]; CD-1, mouse, iv, 10 mg/kg, Plasma concentration) was 10.5 µg/mL and the level at 5 min [3, 10] was 12.9 µg/mL. For the same compound, the level at 0.5 h [3, 10] was 0.3 µg/mL, the level at 4.5 h [3, 10] was 0.16 µg/mL and the level at 245 min ([3]; CD-1, mouse, iv, 20 mg/kg, Plasma concentration) was 22.9 µg/mL. The level at 5 min [3, 11] was 23.2 µg/mL, the level at 0.5 h [3, 11] was 0.44 µg/mL and the level at 125 min [3, 11] was 15.4 µg/mL. The level at 245 min [3, 11] was 12.5 µg/mL, the level at 4.5 h [3, 11] was 0.09 µg/mL and the level at 5 min ([3]; CD-1, mouse, sc, 5 mg/kg, Plasma level) was 0.4 µg/mL. The level at 5 min ([3]; CD-1, mouse, sc, 10 mg/kg, Plasma level) was 0.9 µg/mL, the level at 5 min [3, 12] was 2.9 µg/mL and the level at 0.5 h [3, 12] was 0.3 µg/mL. For the same compound, the level at 1 h [3, 12] was 0.014 µg/mL, the half-life ([3]; mouse, iv, 20 mg/kg) was less than 30 min and the “Immune response (anti-Api137 IgG antibodies)” value [4] was “Only one mouse showed a very weak immune response with a very low level of anti-Api137 IgG antibodies”. For the same compound, the “Tolerance after iv injection” value ([5]; 5 mg/kg iv) was “No adverse effects were observed”, the “Tolerance after iv injection” value ([5]; 10 to 50 mg/kg iv) was “experienced labored breathing and lethargy but recovered to normal limits within 5 h post injection” and the Plasma level ([6]; ip, 5 mg/kg) was 0.2 µg/mL. For the same compound, the Maximal plasma level ([6]; ip, 20 mg/kg) was 3.6 mg/L and the “Plasma level (maximal)” value ([6]; iv, 5 mg/kg) was 0.4 µg/mL.

In the case of `C[C@H]1COc2c(N3CCN(C)CC3)c(F)cc3c(=O)c(C(=O)O)cn1c23` [levofloxacin], the “Efficacy compared with Api137” value [7] was “more efficacious”.

With Gu-ONNRPVYIPRPRPPHPRL-OH the fragment found [8] was “Api137(1-17), major, 1 h; also recorded: Api137(1-16), major, 1 h”.
